The text below walks through data of patent US20080269202A1, “Novel 2,3-benzodiazepine derivatives and their use as antipsychotic agents” (Teva Pharmaceutical Industries Ltd., priority 2007, published 2008).

Where a name gives a salt, the structure may show the parent alone.

For data set [1], the system named is apomorphine-induced climbing. In words: apomorphine-induced climbing test in mice. It counts as in vivo, CD1 mice. Particulars: Mus musculus; mice, ip. 30 min before apomorphine 2 mg/kg s.c.; read-out: Climbing ED50 (mg/kg ip.). The method, then: Anti-apomorphine effects were investigated in the climbing test in mice mediated through the mesolimbic and stereotypy test in rats mediated through the nigrostriatal system. Conventional antipsychotics antagonize both apomorphine-induced behaviours, while known atypical antipsychotics are weaker against apomorphine stereotypy.
The climbing test was carried out according to Protais et al. (Protais, P. et al. Psychopharmacologia, 1976, 50, 1.) Stereotyped behavior was induced in food deprived (for 16 hours) male CD1 mice weighing 20-25 g body by apomorphine HCl (SIGMA) in a s.c. dose of 2 mg/kg. Mice were placed individually into cylinders having 12 cm diameter and consisting of vertical bars of 2 mm diameter where apomorphine treated animals tended to adopt a vertical position in contrary to vehicle treated controls. Test substances were applied ip. 30 min before apomorphine.
10 and 20 min after apomorphine treatment the climbing behaviour was evaluated by scores of 0-2. 10 mice/group were used. The scores of the two readings were summed individually, meaned and compared to the control. The ED50 values were calculated by Litchfield-Wilcoxon's method (Litchfield Jr. J. T., Wilcoxon, F. J. Pharmacol. Exp. Ther. 1949, 96, 49,).

Take `COc1cc2c(cc1OC)C(c1ccc(N)cc1)=NN(c1nccs1)[C@H](C)C2` [Example 112]: the melting point – broadly, the temperature, or range, at which the solid turns liquid – lay in the range of 229 to 230 °C. The ED50 in data set [1] worked out at 25 mg/kg. `COc1cc2c(cc1OC)C(c1ccc([N+](=O)[O-])cc1)=NN(c1nnc(C)s1)C(C)C2` (centres unmarked) [Example 27]: the melting point was 228 to 229 °C. `COc1cc2c(cc1OC)C(c1ccc(N)c(C)c1)=NN(c1nccs1)[C@H](C)C2` [Example 114] registered a melting point of 116 to 118 °C. Molecule `CNC(=S)N1N=C(c2ccc(N)cc2)c2cc(OC)c(OC)cc2CC1C` (racemic) came in with a melting point of 235 to 237 °C. The same measure, in the same setting: as for `COc1cc2c(cc1OC)C(c1ccc(N)c(C)c1)=NN(C1=NOCS1)[C@H](C)C2` [Example 118], the figure is 194 to 197 °C; as for `COc1cc2c(cc1OC)C(c1ccc(NC(C)=O)c(Cl)c1)=NN(c1nccs1)[C@H](C)C2` [Example 186], 213 to 215 °C; as for `COc1cc2c(cc1OC)C(c1ccc([N+](=O)[O-])cc1)=NN(c1nc(C)c(C)s1)C(C)C2` (centres unmarked) [Example 8], 192 to 193 °C.

As to `COc1ccc(C2=NN(c3ncon3)C(C)Cc3cc(OC)c(OC)cc32)cc1OC` (centres unmarked) [Example 53], the melting point fell in the range of 188 to 189 °C. Regarding `CCCCNC(=O)N1N=C(c2ccc(N)cc2)c2cc(OC)c(OC)cc2CC1C` (racemic), the melting point lay within 204 to 207 °C. The same measure, in the same setting: as for `COc1cc2c(cc1OC)C(c1ccc(N)cc1)=NN(c1nc(C)nn1C)C(C)C2` (racemic) [Example 167], the figure is 113 to 115 °C; as for `COc1cc2c(cc1OC)C(c1ccccc1)=NN(c1ncon1)C(C)C2` (centres unmarked) [Example 51], 215 to 216 °C; as for `COc1cc2c(cc1OC)C(c1ccc(N)cc1)=NN(c1nccs1)C(C)C2` (racemic) [Example 136], 119 to 122 °C. Same read-out and setting: as for `COc1cc2c(cc1OC)C(c1ccc([N+](=O)[O-])c(C)c1)=NN(c1nccs1)C(C)C2` (centres unmarked) [Example 4], the figure is 172 to 174 °C. Same read-out and setting: the figure for `COc1cc2c(cc1OC)C(c1ccc(N)cc1)=NN(c1ncnn1C)C(C)C2` (racemic) [Example 164] is 160 to 162 °C; for `CNC(=O)N1N=C(c2ccc(N)c(Cl)c2)c2cc(OC)c(OC)cc2CC1C` (racemic) it is 119 to 120 °C. With `COc1cc2c(cc1OC)C(c1ccc([N+](=O)[O-])c(Cl)c1)=NN(c1nncs1)C(C)C2` (centres unmarked) [Example 21], the melting point was 214 to 215 °C. Turning to `CCNC(=O)N1N=C(c2ccc(N)c(C)c2)c2cc(OC)c(OC)cc2C[C@H]1C`, the melting point was in the range of 107 to 110 °C. Molecule `COc1cc2c(cc1OC)C(c1ccc(N)c(Cl)c1)=NN(c1nncs1)C(C)C2` (racemic) [Example 148] displayed a melting point of 125 to 130 °C. On the same count and under the same terms, the figure for `COc1cc2c(cc1OC)C(c1ccc(N)c(Cl)c1)=NN(c1nncs1)[C@H](C)C2` [Example 111] is 129 to 134 °C; for `CNC(=O)N1N=C(c2ccc(N)cc2)c2cc(OC)c(OC)cc2C[C@@H]1C` it is 130 to 134 °C; for `COc1cc2c(cc1OC)C(c1ccc(NC(C)=O)cc1)=NN(c1nccs1)C(C)C2` (centres unmarked) [Example 181] it is 130 to 134 °C. `COc1cc2c(cc1OC)C(c1ccc(N)c(Cl)c1)=NN(c1ncon1)[C@H](C)C2` [Example 107]: the melting point lay in the range of 108 to 110 °C. Same read-out and setting: the figure for `CNC(=O)N1N=C(c2cccc([N+](=O)[O-])c2)c2cc(OC)c(OC)cc2CC1C` (centres unmarked) is 83 to 85 °C; for `COc1cc2c(cc1OC)C(c1ccc([N+](=O)[O-])cc1)=NN(c1ncc(C)s1)C(C)C2` (centres unmarked) [Example 7] it is 122 to 123 °C.

`CCNC(=O)N1N=C(c2ccc([N+](=O)[O-])c(C)c2)c2cc(OC)c(OC)cc2CC1C` (centres unmarked) [Example 80] had a melting point of 149 to 150 °C. Same read-out and setting: the figure for `COc1cc2c(cc1OC)C(c1ccc([N+](=O)[O-])cc1)=NN(C(=O)N(C)C)C(C)C2` (centres unmarked) is 92 to 96 °C; for `COc1cc2c(cc1OC)C(c1ccc(N)cc1)=NN(C1=NC(=O)CS1)C(C)C2` (racemic) [Example 142] it is 166 to 168 °C; for `COc1cc2c(cc1OC)C(c1ccc(N)cc1)=NN(c1nc(C)c(C)s1)[C@H](C)C2` [Example 113] it is 122 to 124 °C. Consider `COc1cc2c(cc1OC)C(c1ccc(N)cc1)=NN(c1nncs1)[C@@H](C)C2` [Example 109], for which the melting point lay in the range of 160 to 162 °C. Take `CNC(=O)N1N=C(c2ccc(N)c(C)c2)c2cc(OC)c(OC)cc2CC1C` (racemic): the melting point lay in the range of 119 to 122 °C. Still for that read-out and setting: as for `CNC(=O)N1N=C(c2cc(C)c([N+](=O)[O-])c(C)c2)c2cc(OC)c(OC)cc2CC1C` (centres unmarked) [Example 77], the figure is 158 to 160 °C; as for `COc1cc2c(cc1OC)C(c1ccc(N)c(Cl)c1)=NN(c1ncon1)C(C)C2` (racemic) [Example 158], 232 to 235 °C; as for `COc1cc2c(cc1OC)C(c1ccc(N)cc1)=NN(C1=NC(=O)C(C)S1)C(C)C2` (racemic) [Example 143], 184 to 188 °C. Molecule `COc1cc2c(cc1OC)C(c1cccc(Cl)c1)=NN(c1nc(C)c(C)s1)C(C)C2` (centres unmarked) (as salt: HCl) [Example 11] displayed a melting point of 174 to 176 °C. The same measure, in the same setting: the figure for `COc1cc2c(cc1OC)C(c1ccc([N+](=O)[O-])c(C)c1)=NN(c1nncs1)C(C)C2` (centres unmarked) [Example 19] is 195 to 196 °C; for `CCCNC(=O)N1N=C(c2ccc(N)c(C)c2)c2cc(OC)c(OC)cc2C[C@H]1C` it is 92 to 95 °C; for `CNC(=O)N1N=C(c2ccc(OC)c(OC)c2)c2cc(OC)c(OC)cc2CC1C` (centres unmarked) it is 185 to 186 °C. Molecule `COc1cc2c(cc1OC)C(c1ccc([N+](=O)[O-])c(Cl)c1)=NN(c1ncon1)C(C)C2` (centres unmarked) [Example 46] came in with a melting point of 206 to 208 °C. Take `CNC(=O)N1N=C(c2ccc(Cl)cc2)c2cc(OC)c(OC)cc2CC1C` (centres unmarked): the melting point lay in the range of 164 to 166 °C.

The molecule `COc1cc2c(cc1OC)C(c1ccc(N)c(C)c1)=NN(c1nccs1)C(C)C2` (racemic) [Example 140] displayed a melting point of 109 to 113 °C. In the case of `CNC(=O)N1N=C(c2cc(C)c(N)c(C)c2)c2cc(OC)c(OC)cc2C[C@H]1C`, the melting point lay in the range of 110 to 113 °C. `COc1cc2c(cc1OC)C(c1ccc(NC(C)=O)cc1)=NN(c1nc(C)c(C)s1)[C@H](C)C2` [Example 184]: the melting point was in the range of 238 to 239 °C.

In the case of `COc1cc2c(cc1OC)C(c1ccc(N)cc1)=NN(C(=O)N1CCCCC1)C(C)C2` (racemic) [Example 178], the melting point fell in the range of 129 to 132 °C. Same read-out and setting: the figure for `COc1cc2c(cc1OC)C(c1ccc([N+](=O)[O-])cc1)=NN(c1ncon1)C(C)C2` (centres unmarked) [Example 41] is 190 to 192 °C. In the case of `CNC(=O)N1N=C(c2ccccc2)c2cc(OC)c(OC)cc2CC1C` (centres unmarked), the melting point lay within 86 to 88 °C. Still for that read-out and setting: the figure for `COc1cc2c(cc1OC)C(c1ccc(N)c(C)c1)=NN(c1ncon1)C(C)C2` (racemic) [Example 157] is 234 to 237 °C; for `COc1cc2c(cc1OC)C(c1ccc(N)cc1)=NN(c1ncn[nH]1)C(C)C2` (racemic) [Example 162] it is 152 to 155 °C. The same measure, in the same setting: the figure for `COc1cc2c(cc1OC)C(c1ccc([N+](=O)[O-])cc1)=NN(c1nc(C)cs1)C(C)C2` (centres unmarked) [Example 6] is 194 to 195 °C; for `COc1cc2c(cc1OC)C(c1ccc(N)cc1)=NN(C1=NCCO1)C(C)C2` (racemic) [Example 153] it is 135 to 137 °C; for `CNC(=O)N1N=C(c2ccc(F)cc2)c2cc(OC)c(OC)cc2CC1C` (centres unmarked) it is 80 to 83 °C. Take `CNC(=O)N1N=C(c2ccc([N+](=O)[O-])c(Cl)c2)c2cc(OC)c(OC)cc2CC1C` (centres unmarked) [75]: the melting point was in the range of 194 to 195 °C. `COc1cc2c(cc1OC)C(c1ccc([N+](=O)[O-])cc1)=NN(c1nnc(C)o1)C(C)C2` (centres unmarked) [Example 30] showed a melting point of 177 to 178 °C. The molecule `CCOc1cc2c(cc1OCC)C(c1ccc([N+](=O)[O-])cc1)=NN(c1nncs1)C(C)C2` (centres unmarked) [Example 26] displayed a melting point of 172 to 174 °C. Same read-out and setting: as for `COc1cc2c(cc1OC)C(c1ccc(NC(C)=O)c(C)c1)=NN(c1nccs1)C(C)C2` (centres unmarked) [Example 182], the figure is 209 to 211 °C; as for `CCOc1cc2c(cc1OCC)C(c1ccc(N)cc1)=NN(c1ncon1)C(C)C2` (racemic) [Example 159], 158 to 162 °C; as for `COc1cc2c(cc1OC)C(c1ccc(N)cc1)=NN(C(=O)NC1CC1)C(C)C2` (racemic), 120 to 123 °C. The molecule `COc1cc2c(cc1OC)C(c1ccc([N+](=O)[O-])c(C)c1)=NN(C1=NOCS1)C(C)C2` (centres unmarked) [Example 35] registered a melting point of 180 to 182 °C. Same read-out and setting: as for `CNC(=O)N1N=C(c2ccc(N)c(C)c2)c2cc(OC)c(OC)cc2C[C@@H]1C`, the figure is 157 to 159 °C; as for `COc1cc2c(cc1OC)C(c1ccc(N)cc1)=NN(c1nnco1)C(C)C2` (racemic) [Example 150], 100 to 105 °C; as for `COc1cc2c(cc1OC)C(c1ccc([N+](=O)[O-])cc1)=NN(c1ncon1)C(C)C2` (centres unmarked) [Example 40], 213 to 214 °C.

`COc1cc2c(cc1OC)C(c1ccc([N+](=O)[O-])cc1)=NN(c1nnco1)C(C)C2` (centres unmarked) [Example 29] had a melting point of 225 to 229 °C.
